# Test results as given in patent US20060252807A1, “Novel ortho-terphenyl inhibitors of p38 kinase and methods of treating inflammatory disorders” (Kalypsys, Inc., priority 2005, published 2006).
# Molecular target: T1, active p38 alpha enzyme (Upstate Biotechnology) (Homo sapiens, UniProt Q16539)
# T1 construct: purchased Upstate Biotechnology
# Experiment: p38α biochemical assay (ATP turnover, luminescent detection, Cambrex PKlight)
# Details: p38α biochemical assay, Table 1 Biological Activity
# How it was run: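 Luminescent ATP-depletion readout measures total ATP turnover by p38α phosphorylating whole MapkapK2 protein. ATP 1.4 uM final; 30C, 2 h. Compounds delivered from DMSO.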
# T1 sequence (Q16539 whole entry): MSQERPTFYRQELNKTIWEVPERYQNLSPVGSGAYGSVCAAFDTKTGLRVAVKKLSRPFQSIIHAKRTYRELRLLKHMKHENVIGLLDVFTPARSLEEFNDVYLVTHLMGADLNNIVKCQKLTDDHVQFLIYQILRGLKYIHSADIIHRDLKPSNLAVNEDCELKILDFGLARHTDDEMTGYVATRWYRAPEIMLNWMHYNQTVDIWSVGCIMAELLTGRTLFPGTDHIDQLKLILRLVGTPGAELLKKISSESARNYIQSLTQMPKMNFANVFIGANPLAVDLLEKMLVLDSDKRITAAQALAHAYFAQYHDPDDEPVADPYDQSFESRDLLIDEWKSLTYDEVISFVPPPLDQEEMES
row,Structure (SMILES),IC50 [nM]
1,CC(C)NC(=O)c1csc(-c2oc(CN3CCN(C(=O)C(C)c4cccc(C(=O)c5ccccc5)c4)CC3)nc2-c2ccc(F)cc2)n1 (centres unmarked) [Example 567],> 1000
2,CC(C)NC(=O)c1csc(-c2oc(CN3CCN(C(=O)C(Cc4ccccc4)NC(=O)OC(C)(C)C)CC3)nc2-c2ccc(F)cc2)n1 (centres unmarked) [Example 568],> 1000
3,CC(C)NC(=O)c1csc(-c2oc(CN3CCN(C(=O)C(Cc4ccccn4)NC(=O)OC(C)(C)C)CC3)nc2-c2ccc(F)cc2)n1 (centres unmarked) [Example 569],> 1000
4,CC(C)NC(=O)c1csc(-c2oc(CN3CCN(C(=O)C4Cc5ccccc5CN4C(=O)OC(C)(C)C)CC3)nc2-c2ccc(F)cc2)n1 (centres unmarked) [Example 570],> 1000
5,CC(C)NC(=O)c1csc(-c2oc(CN3CCN(C(=O)C(Cc4ccc(O)cc4)NC(=O)OC(C)(C)C)CC3)nc2-c2ccc(F)cc2)n1 (centres unmarked) [Example 571],≤ 1000
6,CC(C)NC(=O)c1csc(-c2oc(CN3CCNCC3)nc2-c2ccc(F)cc2)n1 [Example 572],> 1000
7,CC(=O)NCc1onc(-c2ccc(F)cc2)c1-c1nc(C(=O)NC(C)C)cs1 [Example 573],> 1000
8,CC(C)NC(=O)c1csc(-c2c(-c3ccc(F)cc3)noc2CNC(=O)C=O)n1 [Example 574],> 1000
9,CC(C)NC(=O)c1csc(-c2c(-c3ccc(F)cc3)noc2CNC(=O)CC#N)n1 [Example 575],≤ 1000
10,CC(C)NC(=O)c1csc(-c2c(-c3ccc(F)cc3)noc2CNC(=O)C(C)O)n1 (centres unmarked) [Example 576],> 1000
11,CCC(=O)C(=O)NCc1onc(-c2ccc(F)cc2)c1-c1nc(C(=O)NC(C)C)cs1 [Example 577],> 1000
12,CC(C)NC(=O)c1csc(-c2c(-c3ccc(F)cc3)noc2CNC(=O)C(C)(C)C)n1 [Example 578],> 1000

# Other lines, results leading:
row,IC50 [nM],Structure (SMILES)
1,> 1000,CC(C)CC(=O)NCc1onc(-c2ccc(F)cc2)c1-c1nc(C(=O)NC(C)C)cs1 [Example 579]
2,> 1000,CC(C)NC(=O)c1csc(-c2c(-c3ccc(F)cc3)noc2CNC(=O)c2cnc[nH]2)n1 [Example 580]
3,> 1000,CC(C)NC(=O)c1csc(-c2c(-c3ccc(F)cc3)noc2CNC(=O)c2ncc[nH]2)n1 [Example 581]
4,> 1000,CC(C)NC(=O)c1csc(-c2c(-c3ccc(F)cc3)noc2CNC(=O)C2=CCCC2)n1 [Example 582]
5,≤ 1000,CC(C)NC(=O)c1csc(-c2c(-c3ccc(F)cc3)noc2CNC(=O)C(F)(F)F)n1 [Example 583]
6,> 1000,CC(C)NC(=O)c1csc(-c2c(-c3ccc(F)cc3)noc2CNC(=O)C2CCCO2)n1 (centres unmarked) [Example 584]
7,> 1000,CC(=O)NCC(=O)NCc1onc(-c2ccc(F)cc2)c1-c1nc(C(=O)NC(C)C)cs1 [Example 585]
8,> 1000,CC(C)NC(=O)c1csc(-c2c(-c3ccc(F)cc3)noc2CNC(=O)c2ccccc2)n1 [Example 586]
9,> 1000,CC(C)NC(=O)c1csc(-c2c(-c3ccc(F)cc3)noc2CNC(=O)c2cccnc2)n1 [Example 587]
10,> 1000,CC(C)NC(=O)c1csc(-c2c(-c3ccc(F)cc3)noc2CNC(=O)c2ccncc2)n1 [Example 588]
11,> 1000,CC(C)NC(=O)c1csc(-c2c(-c3ccc(F)cc3)noc2CNC(=O)c2ccccn2)n1 [Example 589]
12,≤ 1000,CC(C)NC(=O)c1csc(-c2c(-c3ccc(F)cc3)noc2CNC(=O)C(O)CCl)n1 (centres unmarked) [Example 590]
13,> 1000,Cc1cc(C(=O)NCc2onc(-c3ccc(F)cc3)c2-c2nc(C(=O)NC(C)C)cs2)n[nH]1 [Example 591]
14,> 1000,CC(C)NC(=O)c1csc(-c2c(-c3ccc(F)cc3)noc2CNC(=O)c2cn(C)cn2)n1 [Example 592]
15,> 1000,CC(C)NC(=O)c1csc(-c2c(-c3ccc(F)cc3)noc2CNC(=O)C2CCCCC2)n1 [Example 593]
16,> 1000,CC(C)NC(=O)c1csc(-c2c(-c3ccc(F)cc3)noc2CNC(=O)c2cscn2)n1 [Example 594]
17,> 1000,CCOC(=O)CC(=O)NCc1onc(-c2ccc(F)cc2)c1-c1nc(C(=O)NC(C)C)cs1 [Example 595]
